Source: EP4781984A1 (Beyang Therapeutics Co., Ltd., priority 2023, dated 2025)
pIC50: −log10 of the molar value. ≈ marks a conversion by molar mass, not a printed value.

Experiments:
EGFR = molecular target: T1, EGFR (Homo sapiens, UniProt P00533); experiment: Kinase inhibitory activity, Mobility Shift Assay (EGFR); format: biochemical
T1 construct: purchased Carna 08-115
Experimental: (§1) Assay for Inhibitory Activity of Compounds Against VEGFR and EGFR Kinases
(§2) This assay directly monitors the inhibitory activity of compounds on kinase phosphorylation by measuring non-phosphorylated and phosphorylated substrates in the kinase reaction using Mobility Shift Assays/IMAP™ analysis. Table 2. Reagents and Instruments
(§3) Kinase and DTT were added to 1X kinase buffer to form a 2.5X kinase solution; 10 µL of the 2.5X kinase solution was transferred to a 384-well reaction plate, and 1X kinase buffer was added to the negative control wells. The plate was incubated at room temperature for 10 minutes; FAM-labeled peptide, MgCl2, ATP, and other reagents were added to 1X kinase buffer to form a 2.5X substrate solution; 10 µL of the above 2.5X substrate solution was transferred to the 384-well reaction plate; the plate was incubated at 28°C for varying times, and then 25 µL of stop solution was added to the 384-well reaction plate to terminate the reaction. Conversion rate data were read on a CaliperEZ Reader II. […] IC50 values were fitted using XLFit excel add-in version 5.4.0.8. Y = Bottom + (Top−Bottom)/(1 + […]) [formula]
(§4) X is the log value of compound concentration, Y is the inhibition rate (% inhibition).

melanin = experiment: Compound binding to melanin; format: in vitro ADME; conditions: cuttlefish (Sepia officinalis), melanin suspension (1 mg/mL), percentage of free drug (not bound to melanin), 2 µM compound, melanin 1 mg/mL in PBS pH 7.4, 37°C
Text: Detection of Compound Binding to Melanin
Pigmented ocular tissues contain melanin within intracellular melanosomes. Drugs bind to melanin to varying degrees, from no binding to extensive binding. Therefore, melanin binding is an important characteristic affecting ocular drug delivery and biodistribution. The ability of compounds to bind to melanin must be considered in ocular drug development.
Melanin derived from cuttlefish (Sepia officinalis) melanin was purchased from Sigma Aldrich (St Louis, MO).
First, prepare a 1 mg/mL melanin suspension in PBS (pH 7.4). As a matrix washing step, suspended particles were centrifuged at 3000 rpm for 5 minutes. The resulting pellet was resuspended in fresh PBS buffer, heated to 37°C with continuous shaking, and incubated for 1 hour. Accurately pipette 2 microliters of test compound stock solution (0.1 mM) into 98 microliters of melanin suspension (1 mg/mL), resulting in a final incubation concentration of 2 µM. Similarly, accurately pipette 2 microliters of stock solution (0.1 mM) into 98 microliters of PBS buffer (containing 0.1% BSA) as a blank control sample. Samples were incubated at 37°C for 2 hours on a shaker (80-90 rpm). Then centrifuged at room temperature. 50 microliters of supernatant was aspirated and added to 50 microliters of precipitation agent (containing internal standard). All samples above were subjected to protein precipitation, centrifuged, the supernatant was taken, diluted with water (if necessary), and then injected for analysis. Simultaneously, high-binding compounds Sunitinib and chloroquine, and the low-binding compound celecoxib were measured as positive controls. An LC-MS/MS analytical method for determining compound concentration was established. The ratio of analyte/internal standard peak areas (Aanalyte/AIS) measured in the samples, calibrated by the dilution factor, was used as the surrogate concentration for data processing. The binding rate of the compound to melanin (Fb) is calculated by the formula: Fb = 100−(Ctest)/(Ccontrol) × 100% [formula]
Ctest is the drug concentration of the compound in the melanin incubation sample or the peak area ratio of the test compound to the internal standard. Ccontrol is the drug concentration of the compound in the blank control sample or the peak area ratio of the test compound to the internal standard. Percentage of free drug (Fu%) = 100 - Fb The binding rates of the compounds of the present invention to melanin are shown in the table below: Table 11. Binding Rate of Compounds to Melanin

[1] = Thermodynamic solubility test; format: physicochemical; conditions: buffer solution, aqueous buffer, thermodynamic from solid; thermodynamic solubility, room temperature, 8 hours shaking; buffers pH 2.0, 6.5, 7.4 used, pH of the tabulated value not given
Experimental: Solubility Test of Compounds
Table 9. Reagents and Instruments
After sonication for 10 minutes, they were fixed on a shaker and shaken at room temperature for 8 hours. After shaking, they were sonicated for 10 minutes and centrifuged at 13000 rpm for 15 minutes. 0.1 mL of supernatant was aspirated into a new tube, rinsed with 5 mL of buffer by shaking, and the liquid was discarded. 0.5 mL of supernatant was transferred again to a new tube, centrifuged at 13000 rpm for 15 minutes, and the supernatant was taken (diluted with water if necessary) for LC-MS injection analysis. Sample concentrations were quantified using a 3-5 point calibration curve.

VEGFR2 = molecular target: T2, VEGFR2 (Homo sapiens, UniProt P35968); experiment: Kinase inhibitory activity, Mobility Shift Assay (VEGFR2); format: biochemical
T2 construct: purchased Carna 08-191
T2 sequence (P35968 20-1356): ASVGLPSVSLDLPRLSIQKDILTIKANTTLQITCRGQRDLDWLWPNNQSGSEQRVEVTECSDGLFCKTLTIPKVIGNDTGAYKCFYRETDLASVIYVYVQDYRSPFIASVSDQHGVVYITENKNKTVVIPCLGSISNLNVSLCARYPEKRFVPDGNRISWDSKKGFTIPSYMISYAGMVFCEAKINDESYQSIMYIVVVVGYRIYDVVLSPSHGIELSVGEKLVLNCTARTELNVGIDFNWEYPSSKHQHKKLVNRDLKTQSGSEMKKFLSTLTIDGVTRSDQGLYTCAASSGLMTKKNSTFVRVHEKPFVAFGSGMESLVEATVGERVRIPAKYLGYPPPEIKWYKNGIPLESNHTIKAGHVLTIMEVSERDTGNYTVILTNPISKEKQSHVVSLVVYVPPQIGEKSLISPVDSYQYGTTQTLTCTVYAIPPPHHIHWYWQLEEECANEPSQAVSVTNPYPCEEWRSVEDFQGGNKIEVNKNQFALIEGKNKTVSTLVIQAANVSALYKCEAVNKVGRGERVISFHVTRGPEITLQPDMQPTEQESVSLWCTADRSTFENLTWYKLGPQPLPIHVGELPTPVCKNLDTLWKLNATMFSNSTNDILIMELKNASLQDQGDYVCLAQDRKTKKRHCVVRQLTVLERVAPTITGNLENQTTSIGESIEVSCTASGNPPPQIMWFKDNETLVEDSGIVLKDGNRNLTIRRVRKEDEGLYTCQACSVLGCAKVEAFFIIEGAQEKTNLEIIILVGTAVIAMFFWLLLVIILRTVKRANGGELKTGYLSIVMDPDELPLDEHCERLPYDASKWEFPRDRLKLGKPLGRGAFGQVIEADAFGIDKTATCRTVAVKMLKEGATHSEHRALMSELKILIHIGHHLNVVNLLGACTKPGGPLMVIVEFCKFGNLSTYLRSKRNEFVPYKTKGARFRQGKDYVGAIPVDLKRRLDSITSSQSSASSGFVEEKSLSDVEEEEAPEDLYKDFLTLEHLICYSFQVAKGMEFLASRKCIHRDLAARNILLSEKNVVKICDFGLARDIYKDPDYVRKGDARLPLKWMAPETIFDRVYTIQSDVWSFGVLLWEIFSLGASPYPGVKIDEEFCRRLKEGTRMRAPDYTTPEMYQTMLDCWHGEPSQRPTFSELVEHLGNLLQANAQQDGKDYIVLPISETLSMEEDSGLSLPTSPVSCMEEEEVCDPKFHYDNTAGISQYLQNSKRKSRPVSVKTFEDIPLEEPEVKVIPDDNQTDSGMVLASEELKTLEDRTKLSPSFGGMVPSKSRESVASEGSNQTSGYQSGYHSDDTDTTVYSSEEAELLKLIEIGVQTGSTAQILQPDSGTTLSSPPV
Experimental: as §1, §2, §3, §4

T1 sequence (P00533 25-1210): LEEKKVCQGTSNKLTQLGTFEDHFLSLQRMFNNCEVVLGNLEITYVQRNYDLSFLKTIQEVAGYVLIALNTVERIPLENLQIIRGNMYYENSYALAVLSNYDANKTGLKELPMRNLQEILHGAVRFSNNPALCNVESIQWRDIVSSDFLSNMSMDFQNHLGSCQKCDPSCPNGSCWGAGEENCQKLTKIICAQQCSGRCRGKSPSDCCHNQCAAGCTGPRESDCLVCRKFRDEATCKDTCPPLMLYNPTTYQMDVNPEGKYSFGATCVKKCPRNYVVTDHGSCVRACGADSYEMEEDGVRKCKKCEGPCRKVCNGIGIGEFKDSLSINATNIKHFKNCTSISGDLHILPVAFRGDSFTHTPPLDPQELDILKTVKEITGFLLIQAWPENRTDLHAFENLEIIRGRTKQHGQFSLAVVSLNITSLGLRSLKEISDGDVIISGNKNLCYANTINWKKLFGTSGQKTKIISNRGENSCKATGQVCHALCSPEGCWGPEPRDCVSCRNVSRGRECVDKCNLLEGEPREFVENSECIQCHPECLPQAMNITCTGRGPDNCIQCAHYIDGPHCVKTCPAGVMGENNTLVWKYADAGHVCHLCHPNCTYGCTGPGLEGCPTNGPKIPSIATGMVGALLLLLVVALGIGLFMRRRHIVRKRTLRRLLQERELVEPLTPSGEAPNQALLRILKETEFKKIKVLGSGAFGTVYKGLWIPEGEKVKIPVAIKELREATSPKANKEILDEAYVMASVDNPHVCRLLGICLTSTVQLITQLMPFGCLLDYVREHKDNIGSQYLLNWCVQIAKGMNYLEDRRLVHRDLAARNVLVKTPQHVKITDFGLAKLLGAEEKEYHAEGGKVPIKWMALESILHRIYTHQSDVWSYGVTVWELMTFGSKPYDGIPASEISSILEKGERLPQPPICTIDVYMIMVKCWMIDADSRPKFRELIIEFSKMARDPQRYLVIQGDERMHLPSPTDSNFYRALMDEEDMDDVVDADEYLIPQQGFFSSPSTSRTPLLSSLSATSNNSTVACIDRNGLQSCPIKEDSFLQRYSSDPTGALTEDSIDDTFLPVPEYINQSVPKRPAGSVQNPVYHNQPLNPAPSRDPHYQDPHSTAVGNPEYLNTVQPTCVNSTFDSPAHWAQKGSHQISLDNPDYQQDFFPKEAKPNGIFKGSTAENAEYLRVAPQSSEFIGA

SMILES | pIC50 (EGFR) | fraction unbound at 2 h, 2 µM (melanin) | solubility at 8 h [1] [µg/mL] | pIC50 (VEGFR2)
CNC(=O)c1ccccc1Sc1ccc2c(/C=C/c3ccc(OCCN4CCCC4)nc3)n[nH]c2c1 [Compound I-19, N-methyl-2-((3-((E)-2-(6-(2-(pyrrolidin-1-yl)ethoxy)pyridin-3-yl)ethenyl)-1H-indazol-6-yl)thio)benzamide] | < 4.22 | 0.01 to 0.05 | – | –
CNC(=O)c1ccccc1Sc1ccc2c(/C=C/c3cncc(OCCN4CCCC4)c3)n[nH]c2c1 [Compound I-22] | < 4.22 | 0.01 to 0.05 | 57.4 (≈ 115 µM) | –
CNC(=O)c1ccccc1Sc1ccc2c(/C=C/c3ccnn3CCN3CCCC3)n[nH]c2c1 [Compound I-25] | – | > 0.05 | 216 (≈ 457 µM) | < 7.00
CN1CCC(CCOc2ccc(/C=C/c3n[nH]c4cc(Sc5ccccc5C(=O)NC5CC5)ccc34)nc2)CC1 [Compound I-42] | < 4.22 | 0.01 to 0.05 | – | –
O=C(NC1CC1)c1cc(F)ccc1Sc1ccc2c(/C=C/c3cnn(CCCN4CCCC4)c3)n[nH]c2c1 [Compound I-46] | – | – | – | ≥ 9.00
CNC(=O)c1cccc(F)c1Sc1ccc2c(/C=C/c3ccc(CN4CCCC4)cn3)n[nH]c2c1 [Compound I-68, 3-fluoro-N-methyl-2-({3-[(E)-2-{5-[(pyrrolidin-1-yl)methyl]pyridin-2-yl}ethenyl]-1H-indazol-6-yl}sulfanyl)benzamide] | 4.22 to 5.22 | – | – | 8.00 to 9.00
O=C(NC1CC1)c1ccc(F)cc1Sc1ccc2c(/C=C/c3ccc(CN4CCCC4)cn3)n[nH]c2c1 [Compound I-79] | – | > 0.05 | 80.4 (≈ 157 µM) | ≥ 9.00
O=C(NC1CC1)c1ccccc1Nc1ccc2c(/C=C/c3ccc(CN4CCCC4)cn3)n[nH]c2c1 [Compound I-82, N-cyclopropyl-2-({3-[(E)-2-{5-[(pyrrolidin-1-yl)methyl]pyridin-2-yl}ethenyl]-1H-indazol-6-yl}amino)benzamide] | – | 0.01 to 0.05 | 294 (≈ 614 µM) | ≥ 9.00
CCN(CC)Cc1ccc(/C=C/c2n[nH]c3cc(Sc4c(F)cccc4C(=O)NC4CC4)ccc23)nc1 [Compound I-85] | 4.22 to 5.22 | – | – | 8.00 to 9.00
CCNC(=O)c1ccc(Sc2ccc3c(/C=C/c4ccc(CN(CC)CC)cn4)n[nH]c3c2)cc1F [Compound I-87, 4-({3-[(E)-2-{5-[(diethylamino)methyl]pyridin-2-yl}ethenyl]-1H-indazol-6-yl}sulfanyl)-N-ethyl-2-fluorobenzamide] | < 4.22 | – | – | < 7.00
CCNC(=O)c1ccccc1Sc1ccc2c(/C=C/c3cnn(CCCN4CCCC4)c3)n[nH]c2c1 [Compound I-101] | 4.22 to 5.22 | – | – | ≥ 9.00
CCNC(=O)c1ccc(F)cc1Sc1ccc2c(/C=C/c3cnn(CCCN4CCCC4)c3)n[nH]c2c1 [Compound I-103, N-ethyl-4-fluoro-2-({3-[(E)-2-{1-[3-(pyrrolidin-1-yl)propyl]-1H-pyrazol-4-yl}ethenyl]-1H-indazol-6-yl}sulfanyl)benzamide] | – | – | – | ≥ 9.00
CNC(=O)c1cc(F)ccc1Sc1ccc2c(/C=C/c3cnn(CCCN4CCCC4)c3)n[nH]c2c1 [Compound I-106] | 4.22 to 5.22 | > 0.05 | – | –
CCN(CC)CCc1ccc(/C=C/c2n[nH]c3cc(Sc4cc(F)ccc4C(=O)NC4CC4)ccc23)nc1 [Compound I-108] | – | – | – | ≥ 9.00
CCN(CC)CCc1ccc(/C=C/c2n[nH]c3cc(Sc4ccc(F)cc4C(=O)NC4CC4)ccc23)nc1 [Compound I-109] | – | > 0.05 | 1950 (≈ 3680 µM) | ≥ 9.00
CCNC(=O)c1cccc(F)c1Sc1ccc2c(/C=C/c3cccc(CN4CCCC4)n3)n[nH]c2c1 [Compound I-113, N-ethyl-3-fluoro-2-({3-[(E)-2-{6-[(pyrrolidin-1-yl)methyl]pyridin-2-yl}ethenyl]-1H-indazol-6-yl}sulfanyl)benzamide] | – | – | – | < 7.00

SMILES | pIC50 (EGFR) | fraction unbound at 2 h, 2 µM (melanin) | solubility at 8 h [1] [µg/mL] | pIC50 (VEGFR2)
CCNC(=O)c1cccc(F)c1Sc1ccc2c(/C=C/c3cc(CN4CCCC4)ccn3)n[nH]c2c1 [Compound I-114] | < 4.22 | – | – | < 7.00
CCNC(=O)c1cccc(F)c1Sc1ccc2c(/C=C/c3cc(CCCN4CCCC4)ccn3)n[nH]c2c1 [Compound I-116, N-ethyl-3-fluoro-2-({3-[(E)-2-{4-[3-(pyrrolidin-1-yl)propyl]pyridin-2-yl}ethenyl]-1H-indazol-6-yl}sulfanyl)benzamide] | < 4.22 | 0.01 to 0.05 | – | –
O=C(NC1CC1)c1ccccc1Sc1ccc2c(/C=C/c3cccc(CN4CCCC4)n3)n[nH]c2c1 [Compound I-117] | < 4.22 | 0.01 to 0.05 | – | –
O=C(NC1CC1)c1cc(F)ccc1Sc1ccc2c(/C=C/c3cc(OCCN4CCCC4)ccn3)n[nH]c2c1 [Compound I-118] | < 4.22 | ≤ 0.01 | – | –
O=C(NC1CC1)c1cc(F)ccc1Sc1ccc2c(/C=C/c3cc(CCCN4CCCC4)ccn3)n[nH]c2c1 [Compound I-119] | < 4.22 | – | – | ≥ 9.00
O=C(NC1CC1)c1ccccc1Sc1ccc2c(/C=C/c3cc(CCCN4CCCC4)ccn3)n[nH]c2c1 [Compound I-120] | < 4.22 | – | – | ≥ 9.00
O=C(NC1CC1)c1cccc(F)c1Sc1ccc2c(/C=C/c3cc(CCCN4CCCC4)ccn3)n[nH]c2c1 [Compound I-123] | < 4.22 | – | – | –
O=C(NC1CC1)c1cccc(F)c1Sc1ccc2c(/C=C/c3cccc(CCN4CCCC4)n3)n[nH]c2c1 [Compound I-128] | < 4.22 | – | – | –
CCNC(=O)c1cccc(F)c1Sc1ccc2c(/C=C/c3cccc(CCN4CCCC4)n3)n[nH]c2c1 [Compound I-129] | < 4.22 | – | – | –
O=C(NC1CC1)c1ccccc1Sc1ccc2c(/C=C/c3cc(CCN4CCCC4)ccn3)n[nH]c2c1 [Compound I-133, N-cyclopropyl-2-((3-((E)-2-(4-(2-(pyrrolidin-1-yl)ethyl)pyridin-2-yl)ethenyl)-1H-indazol-6-yl)thio)benzamide] | < 4.22 | – | – | –
O=C(NC1CC1)c1ccccc1Sc1ccc2c(/C=C/c3cccc(CCN4CCCC4)n3)n[nH]c2c1 [Compound I-134] | < 4.22 | – | – | 8.00 to 9.00
O=C(NC1CC1)c1cc(F)ccc1Sc1ccc2c(/C=C/c3cc(CCN4CCCC4)ccn3)n[nH]c2c1 [Compound I-135] | < 4.22 | – | – | –
O=C(NC1CC1)c1cc(F)ccc1Sc1ccc2c(/C=C/c3cccc(CCN4CCCC4)n3)n[nH]c2c1 [Compound I-136] | < 4.22 | – | – | –
O=C(NC1CC1)c1cc(F)ccc1Sc1ccc2c(/C=C/c3cc(CN4CCCC4)ccn3)n[nH]c2c1 [Compound I-137] | < 4.22 | – | – | –
O=C(NC1CC1)c1cc(F)ccc1Sc1ccc2c(/C=C/c3cccc(CN4CCCC4)n3)n[nH]c2c1 [Compound I-138] | < 4.22 | – | – | –
O=C(NC1CC1)c1ccccc1Sc1ccc2c(C#Cc3ccc(OCCN4CCCC4)cn3)n[nH]c2c1 [Compound I-139] | < 4.22 | – | – | –
